Test system: NCI-H929 complex spheroids, viability % test/control
Assay: Anticancer human tumor NCI-H929 cell line growth inhibition [RAS];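 also: compound exposure lasted seven days before viability was read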;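 as to viability, T/C: 100% = DMSO vehicle control viability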
Settings: for viability, T/C: stronger effect = lower value; active = viability on the fitted dose curve at most 10% of control; inactive = the rest
Outline: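 Tumour cells grown as complex spheroids with HUVEC endothelial cells and mesenchymal stem cells, treated with RAS pathway inhibitor combinations. Each agent spans half-log steps from near clinical Cmax, or 10 microM where Cmax is unknown.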

[1] = curve of first compound, second compound 0.000949 µM
[2] = curve of first compound, second compound 0.003 µM
[3] = curve of first compound, second compound 0.00949 µM
[4] = curve of first compound, second compound 0.03 µM
[5] = curve of first compound, second compound 0.0949 µM
[6] = curve of first compound, second compound 0.3 µM
[7] = second compound 0.000949 µM, first compound 0.0316 µM
[8] = second compound 0.000949 µM, first compound 0.1 µM
[9] = second compound 0.000949 µM, first compound 0.316 µM
[10] = second compound 0.000949 µM, first compound 1 µM
[11] = second compound 0.003 µM, first compound 0.0316 µM
[12] = second compound 0.003 µM, first compound 0.1 µM
[13] = second compound 0.003 µM, first compound 0.316 µM
[14] = second compound 0.003 µM, first compound 1 µM
[15] = second compound 0.00949 µM, first compound 0.0316 µM
[16] = second compound 0.00949 µM, first compound 0.1 µM
[17] = second compound 0.00949 µM, first compound 0.316 µM
[18] = second compound 0.00949 µM, first compound 1 µM
[19] = second compound 0.03 µM, first compound 0.0316 µM
[20] = second compound 0.03 µM, first compound 0.1 µM
[21] = second compound 0.03 µM, first compound 0.316 µM
[22] = second compound 0.03 µM, first compound 1 µM
[23] = second compound 0.0949 µM, first compound 0.0316 µM
[24] = second compound 0.0949 µM, first compound 0.1 µM
[25] = second compound 0.0949 µM, first compound 0.316 µM
[26] = second compound 0.0949 µM, first compound 1 µM
[27] = second compound 0.3 µM, first compound 0.0316 µM
[28] = second compound 0.3 µM, first compound 0.1 µM
[29] = second compound 0.3 µM, first compound 0.316 µM
[30] = second compound 0.3 µM, first compound 1 µM

CC(Nc1ccc2c(c1)OCCn1cc(N3C(=O)OCC3C(F)F)nc1-2)C(N)=O (stereo not drawn) + CCn1c(-c2cccnc2C(C)OC)c2c3cc(ccc31)N1CCOC(CC(NC(=O)C(C(C)C)N(C)C(=O)C3(F)CCN(C(=O)C#CC(C)(C)N(C)C)CC3)C(=O)N3CCCC(N3)C(=O)OCC(C)(C)C2)C1
6450 nM: IC50 [1]
5960 nM: IC50 [3] | IC50 [4]
5440 nM: IC50 [5]
4400 nM: IC50 [6]
inactive: viability, T/C [7] 103% | viability, T/C [8] 94.3% | viability, T/C [9] 96.2% | viability, T/C [10] 87.2% | viability, T/C (second compound 0.000949 µM, first compound 3.16 µM) 83.5% | viability, T/C (second compound 0.000949 µM, first compound 10 µM) 30.4% | viability, T/C [11] 99.5% | viability, T/C [12] 96.1% | viability, T/C [13] 94.5% | viability, T/C [14] 90.5% | viability, T/C (second compound 0.003 µM, first compound 3.16 µM) 79.8% | viability, T/C (second compound 0.003 µM, first compound 10 µM) 32.7% | viability, T/C [15] 98.7% | viability, T/C [16] 97.1% | viability, T/C [17] 96.5% | viability, T/C [18] 92% | viability, T/C (second compound 0.00949 µM, first compound 3.16 µM) 85.3% | viability, T/C (second compound 0.00949 µM, first compound 10 µM) 21.6% | viability, T/C [19] 94.1% | viability, T/C [20] 96.6% | viability, T/C [21] 96.5% | viability, T/C [22] 91.8% | viability, T/C (second compound 0.03 µM, first compound 3.16 µM) 83.1% | viability, T/C (second compound 0.03 µM, first compound 10 µM) 22.9% | viability, T/C [23] 96.9% | viability, T/C [24] 98.1% | viability, T/C [25] 94.5% | viability, T/C [26] 91.1% | viability, T/C (second compound 0.0949 µM, first compound 3.16 µM) 80.2% | viability, T/C (second compound 0.0949 µM, first compound 10 µM) 17% | viability, T/C [27] 101% | viability, T/C [28] 101% | viability, T/C [29] 97.2% | viability, T/C [30] 86% | viability, T/C (second compound 0.3 µM, first compound 3.16 µM) 65.6% | viability, T/C (second compound 0.3 µM, first compound 10 µM) 13.2%
6540 nM: IC50 [2]

O=C(c1ccc(F)c(F)c1Nc1ccc(I)cc1F)N1CC(O)([C@@H]2CCCCN2)C1 + CCn1c(-c2cc(N3CCN(C)CC3)cnc2C(C)OC)c2c3cc(ccc31)-c1csc(n1)CC(NC(=O)C1CC1C)C(=O)N1CCCC(N1)C(=O)OCC(C)(C)C2
< 3.16 nM: IC50 [4] | IC50 [5] | IC50 [6]
290 nM: IC50 [2]
69 nM: IC50 [3]
inactive: viability, T/C (second compound 0.000949 µM, first compound 0.00316 µM) 93.3% | viability, T/C (second compound 0.000949 µM, first compound 0.01 µM) 92.5% | viability, T/C [7] 103% | viability, T/C [8] 108% | viability, T/C [9] 97.3% | viability, T/C [10] 17.4% | viability, T/C (second compound 0.003 µM, first compound 0.00316 µM) 90.8% | viability, T/C (second compound 0.003 µM, first compound 0.01 µM) 101% | viability, T/C [11] 111% | viability, T/C [12] 119% | viability, T/C [13] 45.5% | viability, T/C (second compound 0.00949 µM, first compound 0.00316 µM) 110% | viability, T/C (second compound 0.00949 µM, first compound 0.01 µM) 117% | viability, T/C [15] 113% | viability, T/C [16] 19.9% | viability, T/C (second compound 0.03 µM, first compound 0.00316 µM) 31.8% | viability, T/C (second compound 0.03 µM, first compound 0.01 µM) 15.7%
625 nM: IC50 [1]
active: viability, T/C [14] 7.02% | viability, T/C [17] 6.27% | viability, T/C [18] 3.63% | viability, T/C [19] 4.87% | viability, T/C [20] 2.83% | viability, T/C [21] 2.77% | viability, T/C [22] 2.07% | viability, T/C (second compound 0.0949 µM, first compound 0.00316 µM) 4.34% | viability, T/C (second compound 0.0949 µM, first compound 0.01 µM) 3.41% | viability, T/C [23] 1.75% | viability, T/C [24] 1.48% | viability, T/C [25] 1.32% | viability, T/C [26] 0.89% | viability, T/C (second compound 0.3 µM, first compound 0.00316 µM) 3% | viability, T/C (second compound 0.3 µM, first compound 0.01 µM) 1.97% | viability, T/C [27] 1.19% | viability, T/C [28] 1.05% | viability, T/C [29] 1.12% | viability, T/C [30] 0.68%

NC1c2ccccc2OC12CCN(c1cnc3c(N4CCCc5ncccc54)n[nH]c3n1)CC2 (stereo not drawn)
> 10000 nM: IC50 (curve of compound)
inactive: viability, T/C (compound 0.0316 µM) 104% [middle of 4 runs] | viability, T/C (compound 0.1 µM) 99.1% [middle of 4 runs] | viability, T/C (compound 0.316 µM) 104% [middle of 4 runs] | viability, T/C (compound 1 µM) 102% [middle of 4 runs] | viability, T/C (compound 3.16 µM) 101% [middle of 4 runs] | viability, T/C (compound 10 µM) 69.9% [middle of 4 runs]

CC1(O)CCCC1n1c(=O)c(C(F)F)cc2cnc(NC3CCN(S(C)(=O)=O)CC3)nc21 (stereo not drawn) + C=CC(=O)N1CCN(c2nc(OCC3CCCN3C)nc3c(F)c(-c4nc(N)cc(C)c4C(F)(F)F)c(Cl)cc23)C(C)C1
192 nM: IC50 (curve of first compound, second compound 0.1 µM)
inactive: viability, T/C (second compound 0.00316 µM, first compound 0.0316 µM) 115% | viability, T/C (second compound 0.00316 µM, first compound 0.1 µM) 101% | viability, T/C (second compound 0.01 µM, first compound 0.0316 µM) 112% | viability, T/C (second compound 0.01 µM, first compound 0.1 µM) 108% | viability, T/C (second compound 0.0316 µM, first compound 0.0316 µM) 107% | viability, T/C (second compound 0.0316 µM, first compound 0.1 µM) 107% | viability, T/C (second compound 0.1 µM, first compound 0.0316 µM) 109% | viability, T/C (second compound 0.1 µM, first compound 0.1 µM) 109% | viability, T/C (second compound 0.316 µM, first compound 0.0316 µM) 113% | viability, T/C (second compound 0.316 µM, first compound 0.1 µM) 101% | viability, T/C (second compound 1 µM, first compound 0.0316 µM) 121% | viability, T/C (second compound 1 µM, first compound 0.1 µM) 99.8%
190 nM: IC50 (curve of first compound, second compound 0.01 µM)
189 nM: IC50 (curve of first compound, second compound 0.0316 µM)
184 nM: IC50 (curve of first compound, second compound 0.00316 µM) | IC50 (curve of first compound, second compound 0.316 µM)
182 nM: IC50 (curve of first compound, second compound 1 µM)
active: viability, T/C (second compound 0.00316 µM, first compound 0.316 µM) 4.56% | viability, T/C (second compound 0.00316 µM, first compound 1 µM) 8.72% | viability, T/C (second compound 0.00316 µM, first compound 3.16 µM) 2.59% | viability, T/C (second compound 0.00316 µM, first compound 10 µM) 0.82% | viability, T/C (second compound 0.01 µM, first compound 0.316 µM) 3.89% | viability, T/C (second compound 0.01 µM, first compound 1 µM) 8.77% | viability, T/C (second compound 0.01 µM, first compound 3.16 µM) 3.05% | viability, T/C (second compound 0.01 µM, first compound 10 µM) 0.57% | viability, T/C (second compound 0.0316 µM, first compound 0.316 µM) 3.77% | viability, T/C (second compound 0.0316 µM, first compound 1 µM) 9.13% | viability, T/C (second compound 0.0316 µM, first compound 3.16 µM) 2.62% | viability, T/C (second compound 0.0316 µM, first compound 10 µM) 0.19% | viability, T/C (second compound 0.1 µM, first compound 0.316 µM) 4.89% | viability, T/C (second compound 0.1 µM, first compound 1 µM) 8.17% | viability, T/C (second compound 0.1 µM, first compound 3.16 µM) 2.43% | viability, T/C (second compound 0.1 µM, first compound 10 µM) 0.18% | viability, T/C (second compound 0.316 µM, first compound 0.316 µM) 4.58% | viability, T/C (second compound 0.316 µM, first compound 1 µM) 9.4% | viability, T/C (second compound 0.316 µM, first compound 3.16 µM) 2.18% | viability, T/C (second compound 0.316 µM, first compound 10 µM) 0.46% | viability, T/C (second compound 1 µM, first compound 0.316 µM) 4.25% | viability, T/C (second compound 1 µM, first compound 1 µM) 7.11% | viability, T/C (second compound 1 µM, first compound 3.16 µM) 2.09% | viability, T/C (second compound 1 µM, first compound 10 µM) 0.13%

From PubChem BioAssay AID2060884 (Molecular Pharmacology Branch, DTP, NCI, 2025)
